Like-named read-outs stand apart in the source and are kept apart here.
Target: T1, androgen receptor (AR) (Homo sapiens, UniProt P10275, T878A)
T1 sequence (P10275 1-920 T878A): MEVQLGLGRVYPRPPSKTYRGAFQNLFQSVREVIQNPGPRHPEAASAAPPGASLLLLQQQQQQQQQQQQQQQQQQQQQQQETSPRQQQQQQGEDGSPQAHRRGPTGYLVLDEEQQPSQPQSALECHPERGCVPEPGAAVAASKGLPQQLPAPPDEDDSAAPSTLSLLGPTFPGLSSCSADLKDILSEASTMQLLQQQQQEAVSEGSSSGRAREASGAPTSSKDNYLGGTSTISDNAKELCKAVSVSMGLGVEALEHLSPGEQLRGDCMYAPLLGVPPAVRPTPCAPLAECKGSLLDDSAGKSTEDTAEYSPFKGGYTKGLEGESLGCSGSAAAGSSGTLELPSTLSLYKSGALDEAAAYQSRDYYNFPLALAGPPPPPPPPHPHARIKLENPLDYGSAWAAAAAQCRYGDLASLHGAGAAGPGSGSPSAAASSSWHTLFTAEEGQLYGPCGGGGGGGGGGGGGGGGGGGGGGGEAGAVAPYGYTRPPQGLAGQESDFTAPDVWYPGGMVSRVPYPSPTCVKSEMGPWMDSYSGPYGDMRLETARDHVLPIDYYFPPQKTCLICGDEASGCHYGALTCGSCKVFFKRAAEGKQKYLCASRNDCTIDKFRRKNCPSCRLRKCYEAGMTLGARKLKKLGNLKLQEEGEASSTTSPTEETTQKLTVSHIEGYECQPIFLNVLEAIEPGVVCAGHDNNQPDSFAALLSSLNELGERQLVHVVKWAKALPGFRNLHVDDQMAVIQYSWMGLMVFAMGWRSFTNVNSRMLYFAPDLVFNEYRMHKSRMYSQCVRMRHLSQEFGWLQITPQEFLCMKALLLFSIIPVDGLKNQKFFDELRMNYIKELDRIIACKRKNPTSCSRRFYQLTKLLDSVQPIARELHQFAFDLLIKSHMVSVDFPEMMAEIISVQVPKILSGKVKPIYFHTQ
Assay: eGFP cellular AR transcription assay (LNCaP eGFP cells, LN-ARR2PB-eGFP)
Conditions: for inhibition at 3 µM: LNCaP, read-out: % Inhibition (3 μM); for anti-AR activity (AR transcriptional inhibition) in words: LNCaP (T877A AR); for eGFP IC50: 0.1 nM R1881

[1] = eGFP IC50 (μM), LNCaP eGFP cells

Compound	% Inhibition (3 μM)	inhibition at 3 µM	further results
CS(=O)(=O)c1ccc(-c2csc(N3CCOCC3)n2)cc1 [Compound 14277]	12.71%	–	–
CC1CCCN(c2nc(-c3ccc(O)cc3O)cs2)C1 (stereo not drawn) [Compound 14301]	–	60%	IC50 (eGFP IC50 (μM), Series 1): 5 µM
Cc1ccccc1CN1C(=O)NC2C=CC=CC21 (stereo not drawn) [Compound 14065]	–	–	IC50 [1]: 10 µM
Nc1cccc(-c2ccc3ccccc3n2)c1 [Compound 14321]	–	66.5%	–
Oc1ccc(-c2csc(N3CCOCC3)n2)cc1O [Compound 14267]	19.95%	–	–
c1sc(N2CCOCC2)nc1C1CCCC1 [Compound 14403]	–	22%	anti-AR activity (AR transcriptional inhibition) in words: lost their anti-AR activity; eGFP IC50 (LNCaP eGFP cells): Low activity
CS(=O)(=O)Nc1ccc(-c2csc(N3CCOCC3)n2)cc1 [Compound 14276]	25.98%	–	–
c1ccc(-c2csc(-c3c[nH]c4ccccc34)n2)cc1 [Compound 14361]	–	41.6%	IC50 (eGFP IC50 (μM), Series 1): 10.1 µM
CCc1ccc(-c2csc(N3CCOCC3)n2)cc1 [Compound 14259]	26.26%	–	–
Nc1ccccc1CN1C(=O)Cc2ccccc21 [Compound 14082]	–	93.1%	IC50 [1]: 9.5 µM
CNc1cc(F)c(OC)c(-c2csc(N3CCOCC3)n2)c1 [Compound 14465]	–	–	IC50 (eGFP IC50 (μM), Series 1): 3.06 µM
O=C1C(Cl)=C(N2CCOCC2)C(=O)N1c1ccccc1 [Compound 14476]	9.79%	–	–
COc1c(F)cc(O)cc1-c1csc(N2CCOCC2)n1 [Compound 14467]	–	–	IC50 (eGFP IC50 (μM), Series 1): 3.7 µM
Oc1ccccc1/C=C/c1ccccn1 [Compound 14088]	–	–	IC50 [1]: 3.54 µM
NC(=O)N1CCN(c2nc(-c3ccccc3)cs2)CC1 [Compound 14339]	15.82%	–	–
c1ccc(-c2csc(N3CCCC3)n2)cc1 [Compound 14351]	38.4%	–	–
NC(=S)N/N=C1\C(=O)c2cccc3cccc1c23 [Compound 14151]	–	–	IC50 [1]: 30 µM
NC(=S)N/N=C/c1cccc2ccccc12 [Compound 14164]	–	86.8%	IC50 [1]: 3.04 µM
c1ccc2oc(-c3csc(N4CCOCC4)n3)cc2c1 [Compound 14136]	40.98%	–	–
Cc1cccn1-c1csc(N2CCOCC2)n1 [Compound 14410]	–	–	IC50 (eGFP IC50 (μM), Series 1): 28.4 µM
COc1ccc(-c2csc(-c3c[nH]c4ccccc34)n2)cc1 [Compound 14443]	25.15%	–	–
Brc1ccc(-c2csc(N3CCOCC3)n2)cc1 [Compound 14251]	7.96%	–	–
CS(=O)(=O)c1c(F)cccc1-c1csc(N2CCOCC2)n1 [Compound 14429]	–	–	IC50 (eGFP IC50 (μM), Series 1): 3.55 µM
c1ccc2c(c1)ncn2-c1csc(N2CCOCC2)n1 [Compound 14509]	–	–	IC50 (read-out: eGFP IC50): 1.17 µM
CC(=O)c1ccc(-c2ccccc2)s1 [Compound 14422]	–	131%	IC50 (eGFP IC50 (μM), Series 1): 2.26 µM
COc1ccc(-c2csc(N3CCOCC3)n2)c(OC)c1 [Compound 14268]	37.55%	–	–

Compound	% Inhibition (3 μM)	inhibition at 3 µM	further results
FC(F)(F)c1cccc(-c2csc(-c3ccncc3)n2)c1 [Compound 14421]	–	107%	IC50 (eGFP IC50 (μM), Series 1): 4.61 µM
C/C(=N\NC(N)=S)c1ccc2c3c(cccc13)CC2 [Compound 14206]	–	109%	IC50 [1]: 3.4 µM
c1cc2c(cc1-c1csc(N3CCOCC3)n1)CCCC2 [Compound 14291]	–	18.6%	anti-AR activity (AR transcriptional inhibition) in words: lost their anti-AR activity; eGFP IC50 (LNCaP eGFP cells): Low activity
CNC(=S)N/N=C1\C(=O)c2cccc3cccc1c23 [Compound 14153]	–	–	IC50 [1]: 6 µM
Cc1ccc(-c2nc(N3CCOCC3)sc2C)cc1 [Compound 14284]	30.22%	–	–
Fc1ccc(-c2csc(N3CCSCC3)n2)cc1 [Compound 14386]	–	–	IC50 (eGFP IC50 (μM), Series 1): 1.6 µM
Oc1ccc(-c2csc(N3CCOCC3)n2)c(O)c1 [Compound 14295]	24.7%	–	–
Cc1sccc1-c1csc(N2CCOCC2)n1 [Compound 14407]	38.00%	–	–
NC(=S)NN=C(c1ccccc1)c1ccccc1 [Compound 14172]	–	46.4%	IC50 [1]: 29.4 µM
N#Cc1cc2ccccc2nc1N1CCOCC1 [Compound 14433]	–	–	IC50 [1]: 1.95 µM
O=c1[nH]c(N2CCOCC2)cc2ccccc12 [Compound 14453]	–	17.3%	–
Cc1sc(N2CCOCC2)nc1-c1ccccc1 [Compound 14349]	–	–	IC50 (eGFP IC50 (μM), Series 1): 1.47 µM
c1ccc2cc(-n3ccnc3)ccc2c1 [Compound 14018]	–	–	IC50 [1]: 13.9 µM
c1ccn(-c2csc(N3CCOCC3)n2)c1 [Compound 14411]	44.00%	–	–
O=C1C(Cl)=C(N2CCOCC2)C(=O)N1c1ccccc1Cl [Compound 14475]	8.89%	–	–
Fc1ccccc1-c1csc(N2CCOCC2)n1 [Compound 14286]	85.86%	–	–
c1ccc2c(-n3ccnc3)cccc2c1 [Compound 14163]	–	–	IC50 [1]: 24 µM
COc1ccccc1-c1nc(N2CCOCC2)sc1C [Compound 14363]	29.03%	–	–
Fc1ccc(-c2csc(N3CCNCC3)n2)cc1 [Compound 14340]	16.12%	–	–
c1ccc2nc(N3CCCCC3)ccc2c1 [Compound 14495]	–	89.4%	IC50 [1]: 0.6 µM
Clc1scc(-c2csc(N3CCOCC3)n2)c1Cl [Compound 14462]	–	–	IC50 (eGFP IC50 (μM), Series 1): 0.11 µM
c1ccc2sc(N3CCOCC3)nc2c1 [Compound 14393]	–	31.2%	IC50 [1]: 46.6 µM
Nc1ccc(-c2csc(N3CCOCC3)n2)cc1 [Compound 14256]	28.14%	–	–
CN1CCN(c2nc(-c3ccccc3)cs2)CC1 [Compound 14338]	19.33%	–	–
Cc1ccc(-c2csc(N3CCOCC3)n2)c(C)c1 [Compound 14283]	38.89%	–	–
COc1ccc(-c2csc(N3CCOCC3)n2)cc1 [Compound 14249]	45.16%	–	–

Compound	% Inhibition (3 μM)	inhibition at 3 µM	further results
CC1CN(c2nc(-c3ccc(Cl)cc3)cs2)C(C)CO1 (stereo not drawn) [Compound 14248]	4.73%	–	–
N#Cc1ccc(-c2csc(N3CCOCC3)n2)cc1 [Compound 14457]	–	–	% Inhibition (3 μM) (3 µM): 80%
OCc1sc(N2CCOCC2)nc1-c1ccccc1 [Compound 14274]	5.04%	–	–
CC1CN(c2nc(-c3ccc([N+](=O)[O-])cc3)cs2)C(C)CO1 (stereo not drawn) [Compound 14247]	3.73%	–	–
Oc1ccc(-c2ccc3ccccc3n2)cc1 [Compound 14440]	–	8.65%	IC50 [1]: 9.48 µM
Oc1ccccc1-c1ccc2cccnc2n1 [Compound 14336]	–	27.1%	–
Clc1ccc(-c2csc(N3CCOCC3)n2)cc1 [Compound 14253]	–	38.2%	IC50 (eGFP IC50 (μM), Series 1): 39.9 µM
c1ccc2sc(-c3csc(N4CCOCC4)n3)nc2c1 [Compound 14137]	37.44%	–	–
CCSc1ccc(-c2cc(C)nc(N)n2)cc1 [Compound 14055]	–	–	IC50 [1]: 10 µM
c1cc2c(cc1-c1csc(N3CCOCC3)n1)COC2 [Compound 14282]	29.04%	–	–
c1ccc2cc(-c3csc(N4CCOCC4)n3)ccc2c1 [Compound 14231]	38.78%	–	–
NC(=S)NN=C1c2ccccc2-c2ccccc21 [Compound 14205]	–	45.8%	IC50 [1]: 7.38 µM
OCc1cccc(-c2ccc3ccccc3n2)c1 [Compound 14388]	–	44.9%	IC50 [1]: 10.4 µM
c1ccc2c(N3CCOCC3)nccc2c1 [Compound 14112]	–	9%	–
N#Cc1ccc(-c2csc(N3CCOCC3)n2)cc1 [Compound 14261]	–	–	% Inhibition (3 μM) (3 µM): 25.48%
COc1cc(C)c2occ(/C(C)=N/O)c2c1 [Compound 14017]	–	–	IC50 [1]: 41.6 µM
COc1ccc(-c2csc(N3CCOCC3)n2)cc1OC [Compound 14252]	26.03%	–	–
O=C(O)c1csc(N2CCOCC2)n1 [Compound 14502]	–	0%	–
NC(=S)N/N=C1\CCCc2ccccc21 [Compound 14175]	–	45.5%	IC50 [1]: 13.6 µM
FC(F)(F)c1cccc(-c2csc(-c3cnccn3)n2)c1 [Compound 14486]	20.4%	–	–
Cc1ccc(-c2csc(N3CCOCC3)n2)cc1C [Compound 14294]	–	40%	IC50 (eGFP IC50 (μM), Series 1): 10.3 µM
Oc1ccc(-c2csc(-c3ccccc3)n2)cc1 [Compound 14420]	–	125%	IC50 (eGFP IC50 (μM), Series 1): 3.73 µM
Cc1sc(CO)c(-c2csc(N3CCOCC3)n2)c1C [Compound 14466]	–	–	IC50 (eGFP IC50 (μM), Series 1): 0.4 µM
C[C@@H]1C(=O)N(c2ccccc2)C2C=CC=CC21 (stereo partly drawn) [Compound 14078]	–	65.4%	IC50 [1]: 20 µM
c1cc2c3c(ccc(-c4ccn[nH]4)c3c1)CC2 [Compound 14053]	–	–	IC50 [1]: 4 µM

Source: patent US10011573B2, “Human androgen receptor DNA-binding domain (DBD) compounds as therapeutics and methods for their use” (The University of British Columbia, priority 2014, dated 2018)
